Assay results: PMC10175918 (Communications Biology, 2023)
Like-named read-outs stand apart in the source and are kept apart here.

Legend:
Assay in all cases: cell-based
Parameters in all cases: species or system HEK293A; AP-TGFα shedding assay, transfected GPCR plus chimeric Gα mixture, AP release as % of TPA response
Conditions in all cases: HEK293-A
[1] = target: T1, G protein-coupled receptor 65 (Homo sapiens, UniProt Q8IYL9)
T1 construct: gene GPR65

[2] = target: T2, GPR132 (Homo sapiens, UniProt Q9UNW8)
T2 sequence (Q9UNW8 1-380): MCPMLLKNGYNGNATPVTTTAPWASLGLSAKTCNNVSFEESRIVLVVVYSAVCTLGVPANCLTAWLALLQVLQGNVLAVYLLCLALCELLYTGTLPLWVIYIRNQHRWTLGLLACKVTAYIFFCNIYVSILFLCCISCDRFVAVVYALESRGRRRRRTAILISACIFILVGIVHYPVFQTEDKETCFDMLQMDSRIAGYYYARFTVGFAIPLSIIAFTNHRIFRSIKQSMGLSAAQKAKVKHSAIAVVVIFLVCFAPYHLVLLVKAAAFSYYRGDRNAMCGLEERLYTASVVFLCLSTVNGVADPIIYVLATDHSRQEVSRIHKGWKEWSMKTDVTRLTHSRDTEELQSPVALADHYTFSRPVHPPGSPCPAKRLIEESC

[3] = target: T3, relaxin/insulin-like family peptide receptor 3 (Homo sapiens, UniProt Q9NSD7)
T3 construct: gene RXFP3
T3 sequence (Q9NSD7 1-469): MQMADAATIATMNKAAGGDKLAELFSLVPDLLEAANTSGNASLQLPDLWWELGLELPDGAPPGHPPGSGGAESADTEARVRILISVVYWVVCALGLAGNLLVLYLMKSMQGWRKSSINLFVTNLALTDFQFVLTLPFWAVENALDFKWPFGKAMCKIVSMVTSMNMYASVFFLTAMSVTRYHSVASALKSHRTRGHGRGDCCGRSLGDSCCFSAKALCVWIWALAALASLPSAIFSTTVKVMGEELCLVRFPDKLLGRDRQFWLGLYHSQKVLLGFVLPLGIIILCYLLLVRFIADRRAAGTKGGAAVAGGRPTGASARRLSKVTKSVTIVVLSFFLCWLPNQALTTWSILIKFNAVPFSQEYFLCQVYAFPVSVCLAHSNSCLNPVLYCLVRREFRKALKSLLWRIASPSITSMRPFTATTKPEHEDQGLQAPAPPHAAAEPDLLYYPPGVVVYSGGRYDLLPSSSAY

[4] = target: T4, secretin receptor (Homo sapiens, UniProt P47872)
T4 construct: gene SCTR
T4 sequence (P47872 whole entry): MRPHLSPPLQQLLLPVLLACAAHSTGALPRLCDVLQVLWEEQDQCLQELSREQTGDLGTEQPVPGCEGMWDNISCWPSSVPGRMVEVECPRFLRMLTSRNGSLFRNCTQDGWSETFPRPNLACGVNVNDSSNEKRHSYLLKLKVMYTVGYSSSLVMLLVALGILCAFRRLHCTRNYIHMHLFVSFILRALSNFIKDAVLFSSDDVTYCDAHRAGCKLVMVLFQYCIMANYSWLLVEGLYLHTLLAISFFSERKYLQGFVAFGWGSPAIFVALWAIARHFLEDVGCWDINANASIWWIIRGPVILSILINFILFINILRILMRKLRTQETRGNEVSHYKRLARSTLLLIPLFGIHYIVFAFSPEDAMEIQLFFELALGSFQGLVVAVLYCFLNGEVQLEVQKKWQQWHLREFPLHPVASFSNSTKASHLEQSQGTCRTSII

[5] = target: T5, hypocretin (orexin) receptor 2 (Homo sapiens, UniProt O43614)
T5 construct: gene HCRTR2
T5 sequence (O43614 1-444): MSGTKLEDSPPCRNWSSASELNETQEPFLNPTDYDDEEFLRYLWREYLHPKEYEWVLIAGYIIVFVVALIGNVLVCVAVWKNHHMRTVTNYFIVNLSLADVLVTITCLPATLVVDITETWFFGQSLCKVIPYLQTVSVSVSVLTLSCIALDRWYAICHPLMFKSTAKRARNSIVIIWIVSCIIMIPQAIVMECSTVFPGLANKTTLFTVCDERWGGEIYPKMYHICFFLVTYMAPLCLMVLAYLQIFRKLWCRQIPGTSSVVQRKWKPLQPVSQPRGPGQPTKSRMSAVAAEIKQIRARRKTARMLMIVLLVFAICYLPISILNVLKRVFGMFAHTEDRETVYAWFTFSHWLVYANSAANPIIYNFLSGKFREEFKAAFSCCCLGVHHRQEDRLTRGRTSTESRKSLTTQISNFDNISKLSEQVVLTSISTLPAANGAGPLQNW

[6] = target: T6, relaxin/insulin-like family peptide receptor 1 (Homo sapiens, UniProt Q9HBX9)
T6 construct: gene RXFP1
T6 sequence (Q9HBX9 1-757): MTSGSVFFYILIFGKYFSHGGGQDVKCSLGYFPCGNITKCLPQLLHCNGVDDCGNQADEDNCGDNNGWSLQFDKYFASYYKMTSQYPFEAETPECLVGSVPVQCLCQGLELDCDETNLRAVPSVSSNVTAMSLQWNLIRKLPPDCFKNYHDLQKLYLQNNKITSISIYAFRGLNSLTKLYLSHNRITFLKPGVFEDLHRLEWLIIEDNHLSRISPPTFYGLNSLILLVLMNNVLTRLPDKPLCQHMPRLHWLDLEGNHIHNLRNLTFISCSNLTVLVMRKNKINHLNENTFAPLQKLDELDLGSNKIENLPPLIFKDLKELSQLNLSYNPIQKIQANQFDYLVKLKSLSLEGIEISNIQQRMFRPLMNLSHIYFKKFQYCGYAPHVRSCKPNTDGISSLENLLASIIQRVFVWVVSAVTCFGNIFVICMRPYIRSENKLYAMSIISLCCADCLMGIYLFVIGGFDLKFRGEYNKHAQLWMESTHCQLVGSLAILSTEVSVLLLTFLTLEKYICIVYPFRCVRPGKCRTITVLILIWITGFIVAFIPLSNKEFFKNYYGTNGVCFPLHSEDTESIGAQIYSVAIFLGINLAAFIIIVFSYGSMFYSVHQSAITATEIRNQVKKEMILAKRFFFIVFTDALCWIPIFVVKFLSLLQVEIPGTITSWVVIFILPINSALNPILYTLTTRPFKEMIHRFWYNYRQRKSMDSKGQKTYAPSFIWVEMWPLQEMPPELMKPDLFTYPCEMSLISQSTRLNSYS

[7] = target: T7, lysophosphatidic acid receptor 4 (Homo sapiens, UniProt Q99677)
T7 construct: gene LPAR4
T7 sequence (Q99677 whole entry): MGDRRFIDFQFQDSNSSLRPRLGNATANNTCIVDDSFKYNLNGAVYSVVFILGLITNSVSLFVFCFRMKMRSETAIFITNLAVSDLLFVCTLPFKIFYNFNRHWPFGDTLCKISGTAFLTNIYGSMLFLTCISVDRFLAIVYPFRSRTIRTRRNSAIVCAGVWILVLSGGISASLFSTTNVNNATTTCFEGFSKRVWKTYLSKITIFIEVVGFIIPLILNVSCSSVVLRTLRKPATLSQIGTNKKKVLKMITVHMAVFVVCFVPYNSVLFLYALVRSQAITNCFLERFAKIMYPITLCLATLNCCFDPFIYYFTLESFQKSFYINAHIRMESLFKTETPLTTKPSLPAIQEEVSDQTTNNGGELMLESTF

[8] = read-out: % GPCR activation of 10μM GS441524 compared to TPA
[9] = read-out: % GPCR activation of 10μM Sofosbuvir compared to TPA
[10] = read-out: % GPCR activation of 10µM Remdesivir compared to TPA
[11] = read-out: % GPCR activation of 10µM Molnupiravir compared to TPA
[12] = read-out: % GPCR activation of 100μM Favipiravir compared to TPA

T1 sequence (Q8IYL9 whole entry): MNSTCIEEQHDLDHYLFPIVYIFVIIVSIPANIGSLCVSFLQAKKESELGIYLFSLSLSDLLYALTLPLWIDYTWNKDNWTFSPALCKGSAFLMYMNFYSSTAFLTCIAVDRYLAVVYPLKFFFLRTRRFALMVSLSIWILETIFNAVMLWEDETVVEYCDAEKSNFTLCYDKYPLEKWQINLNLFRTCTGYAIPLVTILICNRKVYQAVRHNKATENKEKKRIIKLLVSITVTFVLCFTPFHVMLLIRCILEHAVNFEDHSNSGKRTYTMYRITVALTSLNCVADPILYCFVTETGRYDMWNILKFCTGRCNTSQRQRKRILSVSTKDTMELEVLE

In the case of `N#C[C@@]1(c2ccc3c(N)ncnn23)O[C@H](CO)[C@@H](O)[C@H]1O` [GS441524], the activity at 10 µM [1, 8] is reported as -3.08%, the activity at 10 µM [2, 8] is reported as -8.13% and the activity at 10 µM [3, 8] is reported as 1.98%. The activity at 10 µM [4, 8] was 0.894%, the activity at 10 µM [5, 8] was 2.17% and the activity at 10 µM [6, 8] was -1.09%. For the same compound, the activity at 10 µM [7, 8] was 1.19%.
`CC(C)OC(=O)[C@H](C)N[P@](=O)(OC[C@H]1O[C@@H](n2ccc(=O)[nH]c2=O)[C@](C)(F)[C@@H]1O)Oc1ccccc1` [sofosbuvir] was tested, and the activity at 10 µM [1, 9] was -10.5%, the activity at 10 µM [2, 9] was -1.37% and the activity at 10 µM [3, 9] was -2.19%. For the same compound, the activity at 10 µM [4, 9] was 0.153%, the activity at 10 µM [5, 9] was -1.97% and the activity at 10 µM [6, 9] was 0.456%. For the same compound, the activity at 10 µM [7, 9] was 3.13%.
Work on `CCC(CC)COC(=O)[C@H](C)N[P@](=O)(OC[C@H]1O[C@@](C#N)(c2ccc3c(N)ncnn23)[C@H](O)[C@@H]1O)Oc1ccccc1` [remdesivir] yielded an activity at 10 µM [1, 10] of -1.39%, an activity at 10 µM [2, 10] of 11% and an activity at 10 µM [3, 10] of 3.55%. It also gave an activity at 10 µM [4, 10] of -0.951%, an activity at 10 µM [5, 10] of 0.000265% and an activity at 10 µM [6, 10] of -0.564%. It also gave an activity at 10 µM [7, 10] of -0.0834%.
`CC(C)C(=O)OC[C@H]1O[C@@H](n2ccc(NO)nc2=O)[C@H](O)[C@@H]1O` [molnupiravir] gave an activity at 10 µM [1, 11] of -8.38%, an activity at 10 µM [2, 11] of -1.8% and an activity at 10 µM [3, 11] of -2.92%. For the same compound, the activity at 10 µM [4, 11] was -0.0837%, the activity at 10 µM [5, 11] was 0.477% and the activity at 10 µM [6, 11] was -0.957%. It also gave an activity at 10 µM [7, 11] of -0.213%.
For `NC(=O)c1nc(F)cnc1O` [favipiravir, 6-fluoro-3-hydroxy-2-pyrazinecarboxamide], the activity at 100 µM [1, 12] was 1.28%, the activity at 100 µM [2, 12] was 7.4% and the activity at 100 µM [3, 12] was 1.4%. For the same compound, the activity at 100 µM [4, 12] was -0.513%, the activity at 100 µM [5, 12] was 0.725% and the activity at 100 µM [6, 12] was 0.274%. The activity at 100 µM [7, 12] was -0.546%.
